Laboratory results: publication PMC6942214 (Bioorganic & medicinal chemistry letters, 2019)

What was measured:
[1] = target: T1, MDM2 (Homo sapiens, UniProt Q00987); settings: EU-1 ALL cells; cited from earlier work
[2] = system: EU-1 ALL; assay: WST cytotoxicity assay in EU-1 leukemia cells; assay type: cell-based; settings: read-out: IC50 (μM) EU-1 ALL
[3] = system: p53; settings: EU-1 ALL cells, dose- and time-dependent; cited from earlier work
[4] = system: normal cells; settings: at therapeutic concentration, preliminary results; cited from earlier work
[5] = system: p53; assay: Western blot of p53 in EU-1 cells; assay type: cell-based
[6] = target: T1, MDM2; assay: Western blot of MDM2 in EU-1 cells; assay type: cell-based
[7] = system: cell lysate of EU-1 leukemia cells; assay: Prodrug activation in non-denatured EU-1 cell lysate; assay type: in vitro ADME
[8] = Water solubility by an HPLC method; assay type: physicochemical; settings: ratio of water solubilities

T1 sequence (Q00987 whole entry): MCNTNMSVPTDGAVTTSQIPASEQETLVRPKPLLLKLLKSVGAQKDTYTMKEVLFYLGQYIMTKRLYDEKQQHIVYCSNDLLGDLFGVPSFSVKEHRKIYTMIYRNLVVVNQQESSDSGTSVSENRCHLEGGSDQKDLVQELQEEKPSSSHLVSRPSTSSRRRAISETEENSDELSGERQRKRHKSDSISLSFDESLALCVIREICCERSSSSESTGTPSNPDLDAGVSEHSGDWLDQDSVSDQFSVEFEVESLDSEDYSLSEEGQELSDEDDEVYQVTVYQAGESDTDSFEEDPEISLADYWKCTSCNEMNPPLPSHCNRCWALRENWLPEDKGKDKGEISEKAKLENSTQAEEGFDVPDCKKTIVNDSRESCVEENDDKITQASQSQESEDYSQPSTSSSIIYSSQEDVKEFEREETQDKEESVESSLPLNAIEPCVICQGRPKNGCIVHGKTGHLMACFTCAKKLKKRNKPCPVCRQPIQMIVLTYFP

For `O=C(CCl)Nc1cc(O)c2c(c1)C(=O)c1cccc(O)c1C2=O` [BW-AQ-101], the “effect on MDM2” value [1] is listed as “inhibited MDM2”, the IC50 [2] is listed as 0.83 µM and the “effect on p53” value [3] is listed as “induced activation of p53”. For the same compound, the “toxicity to normal cells” value [4] was “minimal or no toxicity”.

In the case of `O=C(CCl)Nc1cc(OCCO)c2c(c1)C(=O)c1cccc(OCCO)c1C2=O` [BW-AQ-238], the “p53 level (Western blot)” value ([5]; 0.8 μM, 15-h time point) was “increased”, the “p53 level, time course (Western blot)” value ([5]; 1 μM) was “elevated after 4 hours of treatment” and the “cytoplasmic MDM2 level (Western blot)” value ([6]; 0.8 μM, 15-h time point) was “significantly down-regulated”. For the same compound, the “MDM2 level, time course (Western blot)” value ([6]; 1 μM) was “Down-regulation of MDM2 could be detected after 4-h treatment”.

With `CC(C)[C@H](N)C(=O)OCCOc1cccc2c1C(=O)c1c(OCCOC(=O)[C@@H](N)C(C)C)cc(NC(=O)CCl)cc1C2=O.Cl` [Compound 9c] the “time within which the ester bond was cleaved to give parent drug” value [7] was no more than 15 min.

With `Cl.N[C@@H](Cc1ccccc1)C(=O)OCCOc1cccc2c1C(=O)c1c(OCCOC(=O)[C@@H](N)Cc3ccccc3)cc(NC(=O)CCl)cc1C2=O` [Compound 9f] the “fold greater solubility than parent drug BW-AQ-238” value [8] was “over 11000 fold”.
